From ChEMBL document CHEMBL5150037, “Synthesis and in vitro biological evaluation of 3-ethyl-1,5-naphthyridin-2(1H)-one derivatives as potent PARP-1 selective inhibitors and PARP-1 DNA trappers” (Bioorg Med Chem Lett, 2022) come the findings set out here.

In experiment [1] the target is T1, Poly [ADP-ribose] polymerase 1 (Homo sapiens, UniProt P09874). As to the kind of experiment: Inhibition of PARP-1 (unknown origin).
Experiment [2] concerns the target T2, Poly [ADP-ribose] polymerase 2 (Homo sapiens, UniProt Q9UGN5). In words: Inhibition of PARP-2 (unknown origin).
Experiment [3] has as its target T1, Poly [ADP-ribose] polymerase 1. As to the kind of experiment: Inhibition of PARP-1 (unknown origin) binding to DNA assessed as DNA trapping activity.
For experiment [4], the target named is T2, Poly [ADP-ribose] polymerase 2. As to the kind of experiment: Inhibition of PARP-2 (unknown origin) binding to DNA assessed as DNA trapping activity.
Experiment [5] deals with DLD-1. As to the kind of experiment: Antiproliferative activity against human DLD-1 cells harbouring BRCA-2 mutant assessed as inhibition of cell growth. Format: functional, cell-based.
Experiment [6] has as its system DLD-1. As to the kind of experiment: Antiproliferative activity against human DLD-1 cells harbouring wild type BRCA assessed as inhibition of cell growth. Type of experiment: functional, cell-based.

T1 sequence (P09874 whole entry): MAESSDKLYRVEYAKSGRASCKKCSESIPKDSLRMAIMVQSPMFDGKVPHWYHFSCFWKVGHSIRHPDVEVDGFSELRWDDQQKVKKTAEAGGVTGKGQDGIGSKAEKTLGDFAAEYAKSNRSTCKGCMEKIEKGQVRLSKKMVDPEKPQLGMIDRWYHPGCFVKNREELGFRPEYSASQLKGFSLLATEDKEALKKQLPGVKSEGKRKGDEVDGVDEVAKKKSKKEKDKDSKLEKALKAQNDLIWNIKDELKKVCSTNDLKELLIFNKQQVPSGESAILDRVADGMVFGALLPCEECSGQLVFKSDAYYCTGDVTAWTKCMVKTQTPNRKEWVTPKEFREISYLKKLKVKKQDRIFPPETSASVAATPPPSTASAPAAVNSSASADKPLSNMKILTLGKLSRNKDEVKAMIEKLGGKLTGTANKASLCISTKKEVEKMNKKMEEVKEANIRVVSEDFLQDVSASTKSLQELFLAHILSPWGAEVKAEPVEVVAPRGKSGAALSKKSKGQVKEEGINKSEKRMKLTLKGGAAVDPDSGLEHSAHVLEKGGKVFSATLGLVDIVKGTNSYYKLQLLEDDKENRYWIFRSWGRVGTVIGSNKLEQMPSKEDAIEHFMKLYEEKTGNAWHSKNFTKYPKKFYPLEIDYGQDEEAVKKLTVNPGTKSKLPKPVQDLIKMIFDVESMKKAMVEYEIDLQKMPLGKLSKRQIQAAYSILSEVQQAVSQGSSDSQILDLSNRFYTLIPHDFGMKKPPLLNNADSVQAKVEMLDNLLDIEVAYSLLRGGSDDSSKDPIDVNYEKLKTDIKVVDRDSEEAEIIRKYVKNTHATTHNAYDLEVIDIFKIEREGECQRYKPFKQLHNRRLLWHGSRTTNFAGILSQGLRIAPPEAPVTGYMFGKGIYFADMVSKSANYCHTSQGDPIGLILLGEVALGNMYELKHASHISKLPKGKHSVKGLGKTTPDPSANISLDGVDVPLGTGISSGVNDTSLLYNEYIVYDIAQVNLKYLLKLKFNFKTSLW
T2 sequence (Q9UGN5 whole entry): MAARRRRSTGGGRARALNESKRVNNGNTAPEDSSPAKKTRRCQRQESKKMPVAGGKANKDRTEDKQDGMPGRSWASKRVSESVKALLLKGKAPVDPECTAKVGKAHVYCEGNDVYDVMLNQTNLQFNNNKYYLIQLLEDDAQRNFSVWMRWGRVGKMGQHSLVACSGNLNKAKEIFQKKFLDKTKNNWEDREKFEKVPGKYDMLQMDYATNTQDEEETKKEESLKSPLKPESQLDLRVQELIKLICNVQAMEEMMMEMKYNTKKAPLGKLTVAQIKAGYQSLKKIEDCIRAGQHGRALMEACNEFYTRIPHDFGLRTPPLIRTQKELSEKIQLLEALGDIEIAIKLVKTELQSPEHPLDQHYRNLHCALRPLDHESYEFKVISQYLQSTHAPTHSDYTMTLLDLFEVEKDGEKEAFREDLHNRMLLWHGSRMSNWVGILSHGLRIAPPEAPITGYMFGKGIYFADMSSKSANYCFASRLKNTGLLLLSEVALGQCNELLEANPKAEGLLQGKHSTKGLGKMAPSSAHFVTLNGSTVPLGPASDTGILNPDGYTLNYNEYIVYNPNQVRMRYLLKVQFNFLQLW

For the molecule `CCc1cc2ncc(CN3CC(Nc4ccc(C(=O)NC)nc4)C3)cc2[nH]c1=O`, the IC50 in experiment [1] was 2.6 nM; in experiment [2], 192 nM; in experiment [3], 4.76 nM; in experiment [4], 12000 nM; in the experiment with DLD-1 [5] it was 25.6 nM; with DLD-1 [6], 89200 nM.

On to `CCc1cc2ncc(CN3CCN(c4ccc5cn[nH]c5n4)CC3)cc2[nH]c1=O`, for which the IC50 in experiment [1] was found to be 0.41 nM; in experiment [3] it was 4.78 nM; in the experiment on DLD-1 [5], 395 nM; in the experiment with DLD-1 [6], 15600 nM.

As for `CCc1cc2ncc(CN3CCc4nc(C(=O)NC)ccc4C3)cc2[nH]c1=O`, the IC50 in experiment [1] was 348 nM; in experiment [2] it was 485 nM; in experiment [3] it was above 2500 nM; in experiment [4], 4040 nM.

Consider `CCc1cc2ncc(CN3CCC(Nc4ccc(C(=O)NC)nc4)C3)cc2[nH]c1=O` (stereo not drawn), for which the half-inhibitory concentration (IC50) in experiment [1] was found to be 0.94 nM; in experiment [2] it was 68 nM; in experiment [3], 1.61 nM; in experiment [4], 9440 nM; with DLD-1 [5] it was 43.8 nM; with DLD-1 [6], 102000 nM.

`CCc1cc2ncc(CN3C[C@@H]4C[C@H]3CN4c3ccc(C(=O)NC)nc3)cc2[nH]c1=O`: the half-maximal inhibitory concentration (IC50) is 40 nM in experiment [1], 340 nM in experiment [2], above 2500 nM in experiment [3] and 37700 nM in experiment [4].

With `CCc1cc2ncc(CN3CCN(c4ccc(C(=O)NC)c5nccn45)CC3)cc2[nH]c1=O`, the concentration for half-maximal inhibition (IC50) in experiment [1] worked out at 0.63 nM; in experiment [2], 982 nM; in experiment [3] it was 3.58 nM; in experiment [4], 1560 nM; with DLD-1 [5], 161 nM; in the experiment with DLD-1 [6], 8700 nM.

For the molecule `CCc1cc2ncc(CN3CC[C@@H](Nc4ccc(C(=O)NC)nc4)C3)cc2[nH]c1=O`, the IC50 in experiment [1] is 0.49 nM; in experiment [2] it was 133 nM; in experiment [3] it was 1.85 nM; in experiment [4], 3010 nM; in the experiment with DLD-1 [5], 4.82 nM; in the experiment on DLD-1 [6], 43800 nM.

`CCc1cc2ncc(CN3CC4CN(c5ccc(C(=O)NC)nc5)CC4C3)cc2[nH]c1=O` (stereo not drawn): the IC50 in experiment [1] was 0.34 nM; in experiment [2] it was 18 nM; in experiment [3], 8.14 nM; in experiment [4], 678 nM; with DLD-1 [5] it was 46.8 nM; with DLD-1 [6] it was 2980 nM.

As to `CCc1cc2ncc(CN3CCN(c4ccc(C(C)(C)O)nc4)CC3)cc2[nH]c1=O`, the IC50 is 397 nM in experiment [1], 450 nM in experiment [2], above 2500 nM in experiment [3] and 14000 nM in experiment [4].

On to `CCc1cc2ncc(CN3CC4(CCN(c5ccc(C(=O)NC)nc5)CC4)C3)cc2[nH]c1=O`, for which the IC50 in experiment [1] worked out at 12 nM; in experiment [3], 158 nM.

For the molecule `CCc1cc2ncc(CN3CCN(c4ccc5[nH]ncc5n4)CC3)cc2[nH]c1=O`, the IC50 in experiment [1] came to 0.78 nM; in experiment [2], 23 nM; in experiment [3], 380 nM; in experiment [4], 1170 nM.

Turning to `CCc1cc2ncc(CN3CCN(c4ccc5nc(C(F)(F)F)[nH]c5n4)CC3)cc2[nH]c1=O`, the IC50 in experiment [1] is 2.6 nM; in experiment [2], 60 nM; in experiment [3], 244 nM; in experiment [4] it was 1400 nM.

As to `CCc1cc2ncc(CN3CCN(c4cc5cccc(C(=O)NC)c5cn4)CC3)cc2[nH]c1=O`, the IC50 was 14 nM in experiment [1], 151 nM in experiment [2], 1570 nM in experiment [3] and 2980 nM in experiment [4].

For the molecule `CCc1cc2ncc(CN3CCN(c4cnc5cn[nH]c5c4)CC3)cc2[nH]c1=O`, the IC50 in experiment [1] was 0.9 nM; in experiment [2], 5.2 nM; in experiment [3], 231 nM; in experiment [4], 210 nM.

With `CCc1cc2ncc(CN3CC4CC(C3)N4c3ccc(C(=O)NC)nc3)cc2[nH]c1=O`, the IC50 in experiment [1] and in experiment [3] was above 2500 nM throughout.

For `CCc1cc2ncc(CN3CCN(c4ccc(OC(F)F)nc4)CC3)cc2[nH]c1=O`, the IC50 in experiment [1] was found to be 1 nM; in experiment [2] it was 154 nM; in experiment [3] it was 4.51 nM; in experiment [4], 6300 nM; with DLD-1 [5], 66 nM; in the experiment with DLD-1 [6], 15200 nM.

With `CCc1cc2ncc(CN3CC4(C3)CN(c3ccc(C(=O)NC)nc3)C4)cc2[nH]c1=O`, the IC50 in experiment [1] came to 0.59 nM; in experiment [2] it was 9 nM; in experiment [3] it was 2.97 nM; in experiment [4], 839 nM; with DLD-1 [5], 164 nM; in the experiment with DLD-1 [6], 28100 nM.

Take `CCc1cc2ncc(CN3CC[C@H](Nc4ccc(C(=O)NC)nc4)C3)cc2[nH]c1=O`: the IC50 is 33 nM in experiment [1]; 137 nM in experiment [2]; 1460 nM in experiment [3]; 4170 nM in experiment [4]; above 2500 nM with DLD-1 [5]; 77100 nM in the experiment with DLD-1 [6].

For the molecule `CCc1cc2ncc(CN3CCN(c4ccc5oc(=O)[nH]c5c4)CC3)cc2[nH]c1=O`, the 50% inhibitory concentration (IC50) in experiment [1] worked out at 2 nM; in experiment [2], 87 nM; in experiment [3] it was 10.4 nM; in experiment [4], 994 nM.

Take `CCc1cc2ncc(CN3CCn4c(cnc4C(=O)NC)C3)cc2[nH]c1=O`: the IC50 was 75 nM in experiment [1], 20 nM in experiment [2], above 2500 nM in experiment [3] and 2040 nM in experiment [4].

In the case of `CCc1cc2ncc(CN3CCN(c4cc5c(cn4)NC(=O)CC5)CC3)cc2[nH]c1=O`, the IC50 in experiment [1] amounted to 5.4 nM; in experiment [2], 38 nM; in experiment [3] it was 727 nM; in experiment [4] it was 167 nM.

Consider `CCc1cc2ncc(CN3CCC(Nc4ccc(C(=O)NC)nc4)CC3)cc2[nH]c1=O`, for which the concentration for half-maximal inhibition (IC50) came to 3.4 nM in experiment [1], 40 nM in experiment [2], 259 nM in experiment [3] and 3050 nM in experiment [4].

Take `CCc1cc2ncc(CN3CC4CCC(C3)N4c3ccc(C(=O)NC)nc3)cc2[nH]c1=O`: the figures for the IC50 in experiment [1] and in experiment [3] were 41 nM and above 2500 nM, respectively.

With `CCc1cc2ncc(CN3CCN(c4ccc5cc[nH]c5n4)CC3)cc2[nH]c1=O`, the IC50 in experiment [1] worked out at 1.3 nM; in experiment [2] it was 21 nM; in experiment [3] it was 64 nM; in experiment [4] it was 114 nM.

As to `CCc1cc2ncc(CN3CCc4cc(/C=C/C(=O)NC)ccc4C3)cc2[nH]c1=O`, the IC50 in experiment [1] came out at 0.4 nM; in experiment [2] it was 41.5 nM; in experiment [3], 11.2 nM; in experiment [4] it was 1160 nM; in the experiment on DLD-1 [5], 10.8 nM; in the experiment with DLD-1 [6], 33000 nM.

As for `CCc1cc2ncc(CN3CCN(c4ccc(C(N)C(F)(F)F)nc4)CC3)cc2[nH]c1=O` (stereo not drawn), the IC50 is above 2500 nM in experiment [3] and 11800 nM in experiment [4].

As for `O=C(c1cc(Cc2n[nH]c(=O)c3ccccc23)ccc1F)N1CCN(C(=O)C2CC2)CC1` [OLAPARIB], the figures for the concentration for half-maximal inhibition (IC50) in the experiment on DLD-1 [5] and in the experiment on DLD-1 [6] were 172 nM and 23300 nM, respectively.

For the molecule `CCc1cc2ncc(CN3CCN(c4ccc(C(=O)NC)nc4)CC3)cc2[nH]c1=O` [SARUPARIB], the IC50 in the experiment with DLD-1 [5] came out at 0.915 nM; with DLD-1 [6], 12100 nM.

The IC50 is the midpoint of a concentration-inhibition curve.
